According to patent publication EP0777471B1, “INHIBITION OF LEUKOTRIENE BIOSYNTHESIS WITH UREA DERIVATIVES” (MINNESOTA MINING AND MANUFACTURING COMPANY, priority 1994, dated 1996):
Several values for one entry are separate records, joined by “and”; a condition that tells them apart may be missing. Equal entries are not always repeated. Where two headings read alike, the source gives them in different places.

Legend:
[1] = test system: production of Leukotriene C4 in mouse peritoneal macrophages; experiment: In vitro mouse peritoneal macrophage Leukotriene C4 inhibition (zymosan-stimulated, LTC4 radioimmunoassay); type: cell-based; details: Zymosan 50 µg/mL
Outline: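 Adherent peritoneal macrophages from female CD-1 mice were preincubated 15 minutes at 37°C with compound (10, 1 and 0.1 µM, duplicate; DMSO). They were then stimulated with 50 µg/mL zymosan for 1 to 2 hours. Leukotriene C4 released into the medium was measured by radioimmunoassay.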

[2] = test system: production of Leukotriene B4; experiment: Rat ex vivo Leukotriene B4 inhibition (oral dosing, blood challenged with A23187); type: in vivo, Rats; details: two hours post dose
Outline: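 Male CD rats (250 g, non-fasted) dosed orally with compound in PEG 400, 5 rats/group; blood drawn by cardiac puncture before and 2 h after dosing. Heparinized blood challenged with A23187 calcium ionophore, 30 min at 37°C; plasma LTB4 measured by radioimmunoassay. % inhibition = post-dose vs pre-dose LTB4 level.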

[3] = test system: production of Leukotriene B4 (LTB4); experiment: Dog ex vivo Leukotriene B4 inhibition (oral dosing, blood challenged with calcium ionophore); type: in vivo, beagle dogs; details: each entry one dog, negative = stimulation of LTB4 production; for % Inhibition 1 hour / % Inhibition 2 hour / % Inhibition 4 hour / % Inhibition 6 hour: 5 mg/Kg; for inhibition at 5 mg/kg: Canis lupus familiaris, po
Outline: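 Beagle dogs (~10 kg) given compound orally by gavage in PEG 400 at 5 mg/kg; jugular blood drawn pre-dose and at selected post-dose times. Blood challenged with calcium ionophore 30 min at 37°C, plasma LTB4 measured by radioimmunoassay; % inhibition from post-dose versus pre-dose LTB4, one dog per value.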

[4] = 1 h, 1 hour post dose, read-out: % Inhibition 1 hour
[5] = 2 h, 2 hour post dose, read-out: % Inhibition 2 hour
[6] = 4 h, 4 hour post dose, read-out: % Inhibition 4 hour
[7] = 6 h, 6 hour post dose, read-out: % Inhibition 6 hour

SMILES	IC50 [1] [nM]	%I ([2]; 50 mg/Kg)	% Inhibition 1 hour ([3]; 1 hour post dose)	% Inhibition 2 hour ([3]; 2 hour post dose)	% Inhibition 4 hour ([3]; 4 hour post dose)	% Inhibition 6 hour ([3]; 6 hour post dose)	inhibition at 5 mg/kg [3, 4] [%]	inhibition at 5 mg/kg [3, 5] [%]	inhibition at 5 mg/kg [3, 6] [%]	inhibition at 5 mg/kg [3, 7] [%]	%I ([2]; 5 mg/Kg) [%]	%I ([2]; 10 mg/Kg) [%]	%I ([2]; 20 mg/Kg) [%]	%I ([2]; 25 mg/Kg) [%]
CC(C)N(O)C(=O)Nc1ccccc1Cl [Compound 24, 3-(2-chlorophenyl)-1-hydroxy-1-(1-methylethyl)urea]	200	29%	100%	84%	14%	-21% and -24%	99	73	7					
COc1ccc(NC(=O)N(O)C(C)C)cc1 [Compound 23, 1-hydroxy-3-(4-methoxyphenyl)-1-(1-methylethyl)urea]	200	45%			84% and 82% and 59%	15% and 80% and 98% and 56%	100	99						
CC(C)CN(O)C(=O)Nc1ccccc1 [Compound 54, 1-Hydroxy-1-(2-methylpropyl)-3-phenylurea]	1300	42%					99	97	33	43				
CN(O)C(=O)Nc1cccc(S(C)(=O)=O)c1 [Compound 59, 1-Hydroxy-1-methyl-3-[3-(methylsulfonyl)phenyl]urea]	300	65% and 87%			83% and 75% and 78%	37% and 55% and 93% and 76%	100	99			9	23	20	49
COc1cccc(NC(=O)N(C)O)c1 [Compound 5, 1-hydroxy-3-(3-methoxyphenyl)-1-methylurea]	200	82%		75%	99% and 44%	20% and 50%	100							
CN(O)C(=O)Nc1ccccc1 [Compound 10, 1-hydroxy-1-methyl-3-phenylurea]	< 1000	41%			34%	42%	100	100	49	52				23
Cc1cccc(NC(=O)N(C)O)c1 [Compound 7, 1-hydroxy-1-methyl-3-(3-methylphenyl)urea]	< 1000			99%	56%	-21% and 48%	100	100	70		32			
CC(C)N(O)C(=O)Nc1ccc(F)cc1 [Compound 18, 3-(4-fluorophenyl)-1-hydroxy-1-(1-methylethyl)urea]	800	3%			57%	46% and -12%	100	100	49					
CN(O)C(=O)Nc1cccc(F)c1 [Compound 8, 3-(3-fluorophenyl)-1-hydroxy-1-methylurea]	400				27% and 11%	9% and -32%	100	92			29			
CC(C)CCN(O)C(=O)Nc1ccccc1 [Compound 44, 1-hydroxy-1-(3-methylbutyl)-3-phenylurea]	< 1000	18%	80% and 52%	11% and 5%	-19% and 12%	-19% and 30%								
Cc1cccc(NC(=O)N(O)C(C)C)c1 [Compound 21, 1-hydroxy-1-(1-methylethyl)-3-(3-methylphenyl)urea]	100			88%	0% and -37%	24% and -8%	100	95						
Cc1ccccc1NC(=O)N(O)C(C)C [Compound 25, 1-hydroxy-1-(1-methylethyl)-3-(2-methylphenyl)urea]	600	45% and 79%	98%	57%	-45% and -78%	9%	100	51		7		13		44
CC(C)N(O)C(=O)Nc1ccccc1F [Compound 20, 3-(2-fluorophenyl)-1-hydroxy-1-(1-methylethyl)urea]	200	19%			64%	13%	100	100	57	17				
CN(O)C(=O)Nc1cccc([N+](=O)[O-])c1 [Compound 9, 1-hydroxy-1-methyl-3-(3-nitrophenyl)urea]	700			34% and 83%	18%	54%	100		33	56				34
CC(C)N(O)C(=O)Nc1ccccc1 [Compound 17, 1-hydroxy-1-(1-methylethyl)-3-phenylurea]	600	26%			70%	64% and 43%	100	98						
CSc1ccc(NC(=O)N(C)O)cc1 [Compound 1, 1-Hydroxy-1-methyl-3-[4-(methylthio)phenyl]urea]	< 1000	87%				95%	100	100	100	93	18			
CN(O)C(=O)Nc1cccc(Br)c1 [Compound 6, 3-(3-bromophenyl)-1-hydroxy-1-methylurea]	< 100	47%	100%	11% and 62%	-36% and 27%	-52% and 19%	86				39			
CC(C)N(O)C(=O)Nc1ccc(Br)cc1 [Compound 19, 3-(4-bromophenyl)-1-hydroxy-1-(1-methylethyl)urea]	< 1000	3%			11% and 74%	29% and 65%	100	84						
CSc1cccc(NC(=O)N(O)C(C)C)c1 [Compound 16, 1-hydroxy-1-(1-methylethyl)-3-[3-(methylthio)phenyl]urea]	< 1000				-8% and -18% and -14% and -80%	-39% and -24% and -186%	100	97						74
